Assays:
[1] = target: T1, histamine H3 receptor (Rattus norvegicus, UniProt Q9QYN8); experiment: Histamine H3 receptor binding assay ([3H]-Nα-methylhistamine binding to rat striatum homogenate); conditions: 1 μmol/L test compound; [3H]-Nα-methylhistamine 1 nmol/L; striata of Sprague-Dawley male rats, 25° C., 1 hour; read-out: Inhibition ratio of [3H]-Nα-methylhistamine binding
T1 construct: from tissue; host or cells: rat striatum (Sprague-Dawley, male, 6 weeks), membrane homogenate
Method in brief: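 Rat striatum membranes (20 μg protein) incubated with [3H]-Nα-methylhistamine 1 nmol/L in 50 mmol/L Tris/HCl pH 7.4, 5 mmol/L EDTA, 1 hour at 25° C; bound ligand by filtration and scintillation counting. Nonspecific binding defined with 10 μmol/L thioperamide; % inhibition reported at 1 μmol/L compound.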

[2] = target: T1, histamine H3 receptor; experiment: Inhibitory effect on histamine release suppressive action of histamine H3 receptor agonist (Nα-methylhistamine) in rat forebrain synaptosomes; assay type: biochemical; conditions: 1 μmol/L test compound and 1 μmol/L Nα-methylhistamine, potassium 30 mmol/L stimulation, read-out: Inhibition ratio of the [3H]-histamine release suppressive action of Nα-methylhistamine
Description: To the forebrains of Sprague-Dawley male rats (6 to 8 weeks of age), a 30-fold volume of a 0.32 mol/L aqueous sucrose solution was added and the forebrains were homogenized. The resulting homogenate was centrifuged (1,000×g, 4° C., 10 min), and to the obtained supernatant, an equivalent volume of Krebs-Ringer solution [120 mmol/L sodium chloride, 0.8 mmol/L potassium chloride, 2.6 mmol/L calcium chloride, 0.67 mmol/L magnesium sulfate, 1.2 mmol/L potassium dihydrogen phosphate, 27.5 mmol/L sodium bicarbonate, 10 mmol/L glucose (pH 7.3)] was added, and the resulting mixture was centrifuged (10,000×g, 4° C., 15 min). To the obtained precipitate, a 15-fold volume of Krebs-Ringer solution was added to suspend the precipitate. Then, the concentration of protein in the resulting tissue homogenate (synaptosomes) was measured and used for a test.
To the synaptosomes (300 μg in terms of protein amount) prepared by the above-described method, a [^3H]-histidine solution [final concentration: […] (740 kBq)/mL]: 6 μl of a 37 MBq/mL (specific activity: […]) solution] was added, and the total volume was adjusted to 300 μL with Krebs-Ringer solution. Then, the resulting mixture was incubated at 37° C. for 30 minutes and centrifuged (10,000×g, 25° C., 3 min). To the resulting precipitate (synaptosomes), 300 μL of Krebs-Ringer solution was added, and the mixture was incubated at 37° C. for 5 minutes and centrifuged (10,000×g, 25° C., 3 min). This procedure was repeated 5 times, whereby washing of synaptosomes was carried out. The resulting synaptosomes were suspended in 100 μL of Krebs-Ringer solution, and the resulting suspension was used for the following procedure.
A test compound and N^α-methylhistamine were separately dissolved in Krebs-Ringer solution to give a concentration of 20 μmol/L (the resulting mixtures were referred to as a test compound solution and a N^α-methylhistamine solution, respectively). To 100 μL of the above-described suspended synaptosomes (300 μg in terms of protein amount), 140 μL of Krebs-Ringer solution was added. Then, 30 μL of the test compound solution and 30 μL of the N^α-methylhistamine solution were added thereto, and the resulting mixture was incubated at 37° C. for 2 minutes. Then, an equivalent volume of a stimulating solution [64 mmol/L sodium chloride, 56.8 mmol/L potassium chloride, 2.6 mmol/L calcium chloride, 0.67 mmol/L magnesium sulfate, 1.2 mmol/L potassium dihydrogen phosphate, 27.5 mmol/L sodium bicarbonate, 10 mmol/L glucose (pH 7.3)] (final potassium concentration: 30 mmol/L) was added, and the resulting mixture was incubated at 37° C. for 2 minutes to release [^3H]-histamine. The reaction mixture was centrifuged (10,000×g, 25° C., 3 min), and the obtained supernatant was passed through Amberlite CG-50 column (250 μL), and the non-adsorbed fractions were discarded. Then, 2 mL of 50 mmol/L [[…]]/hydrochloric acid (HCl) (pH 7.5) (Tris) was passed through the column 3 times, and 2 mL of distilled water, and 1.5 mL of a 0.2 mol/L aqueous sodium hydroxide solution were passed through the column in this order, and the eluted fractions were discarded. Then, 2 mL of a 0.2 mol/L aqueous sodium hydroxide solution was passed through the column, and the eluted fraction was recovered in a scintillation vial. Then, 8 mL of Ultimagold (Perkin Elmer) was added to the recovered eluted solution, and the radioactivity ([^3H]-histamine) was measured using a liquid scintillation counter. The inhibitory action of the test compound on the histamine release suppressive action of N^α-methylhistamine was evaluated by obtaining the inhibition ratio to the histamine release suppressive action in the presence of 1 μmol/L No-methylhistamine and 1 μmol/L of the test compound. The inhibition ratio of the [^3H]-histamine release suppressive action was calculated using the following Equation (2). […]

T1 sequence (Q9QYN8 whole entry): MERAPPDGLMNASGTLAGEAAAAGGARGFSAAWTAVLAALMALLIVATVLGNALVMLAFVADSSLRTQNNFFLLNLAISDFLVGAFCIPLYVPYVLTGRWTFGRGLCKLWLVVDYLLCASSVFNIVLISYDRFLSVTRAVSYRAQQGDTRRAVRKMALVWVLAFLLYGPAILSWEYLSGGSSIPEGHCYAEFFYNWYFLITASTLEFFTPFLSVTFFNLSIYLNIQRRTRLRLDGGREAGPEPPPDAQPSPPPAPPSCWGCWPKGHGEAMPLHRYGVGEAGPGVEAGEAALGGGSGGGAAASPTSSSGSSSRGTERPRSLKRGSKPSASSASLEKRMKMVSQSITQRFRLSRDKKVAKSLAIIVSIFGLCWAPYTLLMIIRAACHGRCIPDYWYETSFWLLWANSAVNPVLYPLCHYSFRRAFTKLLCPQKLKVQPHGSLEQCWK

Structure (SMILES) | inhibition at 1 µM [1] [%] | inhibition at 1 µM [2] [%] | melting point [°C]
CC(C)N1CCC(N(C)C(=C(C#N)C#N)N2CCC(N3CCCCC3)CC2)CC1 [Compound 176, {[N-(1-isopropylpiperidin-4-yl)-N-methylamino](4-piperidinopiperidino)methylene}malononitrile] | ≥ 80 | ≥ 70 | 129 to 130
CN(CCCN1CCCCC1)C(=C(C#N)C#N)N1CCC(N2CCCCC2)CC1 [Compound 161, {[N-methyl-N-(3-piperidinopropyl)amino](4-piperidinopiperidino)methylene}malononitrile] | ≥ 80 | ≥ 70 | 104 to 105
CC1CCCN1CCN1CCN(CCCN2CCCCC2)C1=C(C#N)C#N (centres unmarked) [Compound 57, {1-[2-(2-Methylpyrrolidin-1-yl)ethyl]-3-(3-piperidinopropyl)imidazolidin-2-ylidene}malononitrile] | ≥ 80 | ≥ 70 | 84 to 86
CC1CCCN1CCN1CCN(CCN2CCCC2C)C1=C(C#N)C#N (centres unmarked) [Compound 6, {1,3-Bis[2-(2-methylpyrrolidin-1-yl)ethyl]imidazolidin-2-ylidene}malononitrile] | ≥ 80 | ≥ 70 | 
CC1CCCN1CC1CCN(C(=C(C#N)C#N)N(C)CCN2CCCCC2)CC1 (centres unmarked) [Compound 149, {[N-methyl-N-(2-piperidinoethyl)amino][4-(2-methylpyrrolidin-1-ylmethyl)piperidino]methylene}malononitrile] | ≥ 80 | ≥ 70 | 
CC1CCCN1CCCN1C(=C(C#N)C#N)N(CCCN2CCCC2C)c2ccccc21 (centres unmarked) [Compound 124, {1,3-Bis[3-(2-methylpyrrolidin-1-yl)propyl]benzimidazolidin-2-ylidene}malononitrile] | ≥ 80 | ≥ 70 | 
CC1CCCN1CCCN1CCN(CCCN2CCCCCC2)C1=C(C#N)C#N (centres unmarked) [Compound 71, {1-[3-(Azepan-1-yl)propyl]-3-[3-(2-methylpyrrolidin-1-yl)propyl]imidazolidin-2-ylidene}malononitrile] | ≥ 80 | ≥ 70 | 
CC(C)N1CCC(N2CCN(CCN3CCC[C@H]3C)C2=C(C#N)C#N)CC1 [Compound 213, {1-(1-Isopropylpiperidin-4-yl)-3-[2-((R)-2-methylpyrrolidin-1-yl)ethyl]imidazolidin-2-ylidene}malononitrile] | ≥ 80 | ≥ 70 | 
C[C@H]1CCCN1CCN1CCN(CCN2CCC[C@@H]2C)C1=C(C#N)C#N [Compound 188, {1,3-Bis[2-((S)-2-methylpyrrolidin-1-yl)ethyl]imidazolidin-2-ylidene}malononitrile] | ≥ 80 | ≥ 70 | 
CC1CCCN1CCCN1CCN(CCCN2CCCCC2)C1=C(C#N)C#N (centres unmarked) [Compound 103, {1-[3-(2-Methylpyrrolidin-1-yl)propyl]-3-(3-piperidinopropyl)imidazolidin-2-ylidene}malononitrile] | ≥ 80 | ≥ 70 | 
CN1CCC(N2CCN(CCCN3CCCCC3)C2=C(C#N)C#N)CC1 [Compound 129, [1-(1-Methylpiperidin-4-yl)-3-(3-piperidinopropyl)imidazolidin-2-ylidene]malononitrile] | ≥ 80 | ≥ 70 | 
CC(C)N1CCC(N2CCN(CCCN3CCOCC3)C2=C(C#N)C#N)CC1 [Compound 216, [1-(1-Isopropylpiperidin-4-yl)-3-(3-morpholinopropyl)imidazolidin-2-ylidene]malononitrile] | ≥ 80 | ≥ 70 | 
N#CC(C#N)=C1N(CCCN2CCCCC2)CCN1CCCN1CCCCC1 [Compound 64, [1,3-Bis(3-piperidinopropyl)imidazolidin-2-ylidene]malononitrile] | ≥ 80 | ≥ 70 | 

From patent publication US20090181948A1, “DIAMINE DERIVATIVE” (KYOWA HAKKO KOGYO CO., LTD., priority 2005, published 2009)
